Experimental data reported in patent publication US20250170239A1, “CELLULAR REPROGRAMMING BY TARGETING THE GOLGI APPARATUS” (MUSC Foundation for Research Development, priority 2023, published 2025).

What was measured:
[1] = in culture; cited from earlier work
Pmel T cells [2] = tested on: Pmel T cells
Experimental: (FIG. 18C) NAD+ and nicotinamide quantification from metabolomics dataset. (FIG. 18D) SIRT1 deacetylase activity in activated Pmel T cells (means of normalized OD values). (FIGS. 18E and 18F) Pmel T cells were activated with gp100 for 3 days in the presence of vehicle, GYY4137 (0.5 mM), or GYY4137+sirt1 inhibitor EX527 (10 μM). (FIG. 18E) Nuclear and cytoplasmic protein fractions were isolated and western blot analysis was performed to determine relative expression of nuclear and cytoplasmic Foxo1 (n=3). (FIG. 18F) Expression of CD62L and CD44 analyzed by FACS (n=3). (FIG. 18G) Splenocytes from wildtype and Cbs-knockout mice+/−GYY4137 activated with anti-CD3 and anti-CD28 antibodies followed by intranuclear staining for Foxo1. (FIG. 18H) Pmel T cells activated and expanded for metabolic flux analysis. Quantification of oxygen consumption rate (OCR), spare respiratory capacity (SRC), maximal respiration, and basal respiration (n=10 experimental replicates representative of 3 separate experiments). (FIG. 18I) Pmel T cells activated and expanded to day 5 for characterization of mitochondria using FACS, quantified by MFI values for mitoFM Deep Red, TMRM, and mitoSOX dyes (n=4). (FIG. 18J) Representative confocal microscopy images of mitochondria from control or H2S-treated T cells. (FIG. 18K) Human CD19 CAR-T cells expanded for 3 days with IL2+/−0.5 mM GYY4137 and collected for metabolic flux analysis. Shown is the quantification of mean oxygen consumption rate (OCR), spare respiratory capacity (SRC), maximal respiration, and basal respiration.
Alexa Fluor 488 (anti-Giantin) and Alexa Fluor 647 (anti-TOMM20) fluorescence were imaged in a Zeiss LSM 880 NLO inverted laser scanning confocal microscope (Thornwood, NY) using a 63× 1.4 N.A. plan-apochromat oil immersion lens. Alexa Fluor 488 and Alexa Fluor 647 were excited at 488 nm and 633 nm, respectively. Emitted light was detected with an Airyscan super-resolution detector at BP 495-550 nm for Giantin label and LP 654 nm for TOMM20. Z-stack Airyscan images were processed using the Huygens Professional deconvolution and image analysis software (Scientific Volume Imaging, The Netherland). After images were deconvolved using Huygens' Deconvolution Express (Standard Profile) that determines optimal parameters, 3D surface rendering of deconvolved images with watershed augmentation using Huygens' Surface Renderer was performed.

Cbs-KO T cells = Cbs-KO T cells activated with anti-CD3/anti-CD28 with or without H2S
Pmel T cells [3] = assay: Golgi stress (monensin, H2O2, thapsigargin) in Pmel T cells: GM130, ROS, Golgi dispersion; type: cell-based, mouse; set-up: cell death / mitochondrial ROS / monensin-induced cell death and mitochondrial ROS accumulation / ER stress (p-PERK): dose or concentration left out as unconfirmed
Experimental: (FIG. 21A) Levels of intracellular glutathione assessed using FACS by employing ThiolTracker Violet dye in control CD19 CAR-T cells or CAR-T cells overexpressing Cbs (CbstdCD19-CAR-T) (n=3). (FIG. 21B) 12 hour Thapsigargin (700 nM) treatment was used to induce ER stress in WT T cells, Cbs-KO T cells, and Cbs-KO T cells+H2S. Levels of phosphorylated PERK were assessed by FACS (n=3). (FIG. 21C) Pmel T cells were treated with either Thapsigargin (700 nM) or Monensin (1 mM) for 12 hours, followed by staining for phosphorylated PERK (p-PERK) and GM130 to assess ER stress and Golgi stress, respectively (n=4). (FIG. 21D) Activated Pmel T cells were treated for 12 hours with either vehicle control or 1 mM Monensin (“+Golgi stress”) before being stained for giantin to assess Golgi dispersion. […] (FIG. 21E) Representative confocal microscopy images of mitochondria (Tom20) and Golgi (giantin) in human PBMCs treated with vehicle control or 0.5 mM GYY4137.
T cells were stained with conjugated for surface markers as described in the figure legends followed by fixation and permeabilization with BD Cytofix/Cytoperm Kit (BD Biosciences, 554722). The Golgi was labeled using anti-Giantin antibody (Abcam, ab80864) as the primary antibody followed by secondary antibody staining with anti-Rabbit IgG conjugated to Alexa Fluor 488 (ab150077). The cells were then imaged using ImageStreamX mark II imaging flow-cytometer and analyzed using IDEAS 6.2. Spectral overlap was compensated for using single-stain controls. Image analysis for Golgi area was performed using the protocol established by Eisenberg-Lerner et al.44 First, cells were gated on single cells using the area and aspect ratio features, and then gated on focused cells using the Gradient RMS feature. Golgi area was calculated using the anti-Giantin fluorescence signaling, using on the Threshold_50 mask that includes the 50% highest intensity pixels of the Golgi staining, with a mask defined as Area Threshold 50 was considered as the Golgi area to compare between the relevant conditions.

## C1COCCN1.COc1ccc(P(=S)(S)N2CCOCC2)cc1 (centres unmarked) [GYY4137]
[1]
  duration of sustained H2S release: up to 7 days
Pmel T cells [2]; control vs H2S-treated
  mitochondrial organization and morphology (confocal): more compact and continuous mitochondria
Pmel T cells [2]; expanded to day 5
  mitochondrial mass (mitoFM staining): increased overall mitochondrial mass
  mitochondrial membrane potential (TMRM staining): decreased mitochondrial membrane potential
  mitochondrial reactive oxygen species (mitoSOX staining): decreased mitochondrial reactive oxygen species
Cbs-KO T cells; Cbs-KO T cells +/− GYY4137
  expression of Foxo1 (intranuclear staining): restored
Cbs-KO T cells; Cbs-KO T cells, 12 hour Thapsigargin (700 nM)
  ER stress (pPERK): reduced
Cbs-KO T cells; H2S added to Cbs-KO T cells
  Tcm fraction: restoration of the Tcm fraction
Pmel T cells [3]; 1 mM monensin with H2S treatment
  monensin-induced ROS (DCFDA): mitigated
Pmel T cells [3]; 50 mM H2O2 (6-hours)
  H2O2-mediated changes in Golgi stress (GM130 levels): mitigated
Pmel T cells [3]; monensin in presence of H2S
  monensin-induced cell death and mitochondrial ROS accumulation: partially mitigated
